Measurements reported in patent US9346799B2, “Useful combinations of monobactam antibiotics with beta-lactamase inhibitors” (Basilea Pharmaceutica AG, priority 2005, dated 2016).

Columns and labels:
Assay in all cases: MIC by broth microdilution (NCCLS M7-A5)
Acinetobacter sp. J2 = conditions: Acinetobacter baumannii J2
[1] = test system: Pseudomonas aeruginosa MK1184
[2] = test system: Pseudomonas aeruginosa 1973E
Enterobacter cloacae P99 = test system: Enterobacter cloacae P99
[3] = test system: Klebsiella pneumoniae CF104
Serratia marcescens S6 = test system: Serratia marcescens S6
[4] = test system: Stenotrophomonas malthophilia 1AC736; conditions: Stenotrophomonas maltophilia 1AC736
[5] = + 206 + clavulanate, 4 mg/L each
[6] = + 315 + clavulanate, 4 mg/L each
[7] = + 102 + clavulanate, 4 mg/L each
[8] = + 324 + clavulanate, 4 mg/L each
[9] = MIC of antibiotic 1 with the labelled bridged monobactam of formula II and clavulanate, 4 mg/L each

Row | SMILES | MIC of antibiotic (Acinetobacter sp. J2; [5]) [µg/mL] | MIC of antibiotic (Acinetobacter sp. J2; antibiotic alone) [µg/mL] | MIC of antibiotic [1, 5] [µg/mL] | MIC of antibiotic ([1]; antibiotic alone) [µg/mL] | MIC of antibiotic ([2]; antibiotic alone) [µg/mL] | MIC of antibiotic (Enterobacter cloacae P99; [5]) [µg/mL] | MIC of antibiotic (Enterobacter cloacae P99; antibiotic alone) [µg/mL] | MIC of antibiotic ([3]; antibiotic alone) [µg/mL] | MIC of antibiotic (Serratia marcescens S6; antibiotic alone) [µg/mL] | MIC of antibiotic [4, 5] [µg/mL] | MIC of antibiotic ([4]; antibiotic alone) [µg/mL] | MIC of antibiotic (Acinetobacter sp. J2; [7]) [µg/mL] | MIC of antibiotic [1, 7] [µg/mL] | MIC of antibiotic [2, 7] [µg/mL] | MIC of antibiotic (Enterobacter cloacae P99; [7]) [µg/mL] | MIC of antibiotic [3, 7] [µg/mL] | MIC of antibiotic (Serratia marcescens S6; [7]) [µg/mL] | MIC of antibiotic [4, 7] [µg/mL] | further results
1 | CC1C(NC(=O)C(=NOCc2cc(=O)c(O)cn2O)c2nsc(N)n2)C(=O)N1S(=O)(=O)O (stereo not shown) [Compound 2] | 16 | 4 | 16 | 8 | 8 | 16 | >32 | >32 | >32 | 0.5 | 4 |  |  |  |  |  |  |  | 
2 | CC1C(NC(=O)C(=NOCc2cc(=O)c(O)cn2O)c2noc(N)n2)C(=O)N1S(=O)(=O)O (stereo not shown) [Compound 16] |  | >32 |  | >32 | >32 |  | >32 | >32 | >32 |  | >32 | 16 | 16 | 16 | >32 | 32 | >32 | 2 | 
3 | CC1C(NC(=O)C(=NOCc2cc(=O)c(O)cn2O)c2cccc(N)n2)C(=O)N1S(=O)(=O)O (stereo not shown) [Compound 20] | >32 | >32 | >32 | >32 | 16 | 16 | >32 | >32 | 4 | 0.5 | 4 | >32 | 8 | 32 | 16 | 2 | 0.5 | 0.25 | MIC of antibiotic (Acinetobacter sp. J2; + 501 4 mg/L): <0.06 µg/mL; MIC of antibiotic (Acinetobacter sp. J2; + clavulanate 4 mg/L): >32 µg/mL; MIC of antibiotic ([1]; + 501 4 mg/L): >32 µg/mL; MIC of antibiotic ([1]; + clavulanate 4 mg/L): >32 µg/mL; MIC of antibiotic [2, 5]: 16 µg/mL; MIC of antibiotic ([2]; + 501 4 mg/L): 16 µg/mL; MIC of antibiotic ([2]; + clavulanate 4 mg/L): 16 µg/mL; MIC of antibiotic (Enterobacter cloacae P99; + 501 4 mg/L): >32 µg/mL; MIC of antibiotic (Enterobacter cloacae P99; + clavulanate 4 mg/L): >32 µg/mL; MIC of antibiotic [3, 5]: 4 µg/mL; MIC of antibiotic ([3]; + 501 4 mg/L): 16 µg/mL; MIC of antibiotic ([3]; + clavulanate 4 mg/L): 32 µg/mL; MIC of antibiotic (Serratia marcescens S6; [5]): 0.5 µg/mL; MIC of antibiotic (Serratia marcescens S6; + 501 4 mg/L): 2 µg/mL; MIC of antibiotic (Serratia marcescens S6; + clavulanate 4 mg/L): 2 µg/mL; MIC of antibiotic ([4]; + 501 4 mg/L): 0.25 µg/mL; MIC of antibiotic ([4]; + clavulanate 4 mg/L): 0.25 µg/mL
4 | C[C@H]1[C@H](NC(=O)/C(=N\OCc2cc(=O)c(O)cn2O)c2nccc(N)n2)C(=O)N1S(=O)(=O)O [Compound 21, (3S,4S)-3-{(2Z)-2-(4-aminopyrimidin-2-yl)-3-[(1,5-dihydroxy-4-oxo(2-hydropyridyl))methoxy]-3-azaprop-2-enoylamino}-4-methyl-2-oxoazetidinesulfonic acid] |  | >32 |  | >32 | 8 |  | >32 | >32 | 8 |  | 8 |  |  |  |  |  |  |  | MIC of antibiotic (Acinetobacter sp. J2; + 102 + sulbactam, 4 mg/L each): 2 µg/mL; MIC of antibiotic (Acinetobacter sp. J2; + 324 + sulbactam, 4 mg/L each): 2 µg/mL; MIC of antibiotic ([1]; + 102 + sulbactam, 4 mg/L each): 32 µg/mL; MIC of antibiotic ([1]; + 324 + sulbactam, 4 mg/L each): 32 µg/mL; MIC of antibiotic ([2]; + 102 + sulbactam, 4 mg/L each): 16 µg/mL; MIC of antibiotic ([2]; + 324 + sulbactam, 4 mg/L each): 16 µg/mL; MIC of antibiotic (Enterobacter cloacae P99; + 102 + sulbactam, 4 mg/L each): 32 µg/mL; MIC of antibiotic (Enterobacter cloacae P99; + 324 + sulbactam, 4 mg/L each): 8 µg/mL; MIC of antibiotic ([3]; + 102 + sulbactam, 4 mg/L each): 2 µg/mL; MIC of antibiotic ([3]; + 324 + sulbactam, 4 mg/L each): 4 µg/mL; MIC of antibiotic (Serratia marcescens S6; + 102 + sulbactam, 4 mg/L each): 16 µg/mL; MIC of antibiotic (Serratia marcescens S6; + 324 + sulbactam, 4 mg/L each): 4 µg/mL; MIC of antibiotic ([4]; + 102 + sulbactam, 4 mg/L each): 8 µg/mL; MIC of antibiotic ([4]; + 324 + sulbactam, 4 mg/L each): 4 µg/mL
5 | Nc1nc(CC(=O)N2CC[C@@H]3[C@H]2C(=O)N3S(=O)(=O)O)cs1 [Compound 401] |  |  |  |  |  |  |  |  |  |  |  |  |  |  |  |  |  |  | MIC of antibiotic at fixed inhibitor concentration (4 mg/L) [2, 9]: 3 µg/mL; MIC of antibiotic at fixed inhibitor concentration (4 mg/L) [3, 9]: 35 µg/mL; MIC of antibiotic at fixed inhibitor concentration (4 mg/L) (Serratia marcescens S6; [9]): 3.125 µg/mL

Continued, in another order:

Row | MIC of antibiotic (Acinetobacter sp. J2; [5]) [µg/mL] | MIC of antibiotic (Acinetobacter sp. J2; antibiotic alone) [µg/mL] | MIC of antibiotic [1, 5] [µg/mL] | MIC of antibiotic ([1]; antibiotic alone) [µg/mL] | MIC of antibiotic ([2]; antibiotic alone) [µg/mL] | MIC of antibiotic (Enterobacter cloacae P99; [5]) [µg/mL] | MIC of antibiotic (Enterobacter cloacae P99; antibiotic alone) [µg/mL] | MIC of antibiotic ([3]; antibiotic alone) [µg/mL] | MIC of antibiotic (Serratia marcescens S6; antibiotic alone) [µg/mL] | MIC of antibiotic [4, 5] [µg/mL] | MIC of antibiotic ([4]; antibiotic alone) [µg/mL] | MIC of antibiotic (Acinetobacter sp. J2; [7]) [µg/mL] | MIC of antibiotic [1, 7] [µg/mL] | MIC of antibiotic [2, 7] [µg/mL] | MIC of antibiotic (Enterobacter cloacae P99; [7]) [µg/mL] | MIC of antibiotic [3, 7] [µg/mL] | MIC of antibiotic (Serratia marcescens S6; [7]) [µg/mL] | MIC of antibiotic [4, 7] [µg/mL] | SMILES | further results
6 | 32 |  | >32 |  |  | 16 |  |  |  | 4 |  |  |  |  |  |  |  |  | C[C@H]1[C@H](NC(=O)/C(=N\OCc2cc(=O)c(O)cn2C)c2csc(N)n2)C(=O)N1S(=O)(=O)O [Compound 6, (3S,4S)-3-{(2Z)-2-(2-amino(1,3-thiazol-4-yl))-3-[(5-hydroxy-1-methyl-4-oxo(2-hydropyridyl))methoxy]-3-azaprop-2-enoylamino}-4-methyl-2-oxoazetidinesulfonic acid] | MIC of antibiotic (Acinetobacter sp. J2; [6]): >32 µg/mL; MIC of antibiotic [1, 6]: >32 µg/mL; MIC of antibiotic [2, 5]: >32 µg/mL; MIC of antibiotic [2, 6]: >32 µg/mL; MIC of antibiotic (Enterobacter cloacae P99; [6]): 4 µg/mL; MIC of antibiotic [3, 5]: 0.5 µg/mL; MIC of antibiotic [3, 6]: 0.5 µg/mL; MIC of antibiotic (Serratia marcescens S6; [5]): 4 µg/mL; MIC of antibiotic (Serratia marcescens S6; [6]): 4 µg/mL; MIC of antibiotic [4, 6]: 2 µg/mL
7 |  | >32 |  | >32 | 8 |  | >32 | >32 | 16 |  | 0.5 | >32 | 4 | 8 | 32 | 0.5 | 1 | 0.25 | Nc1nc(C(=NOCc2cc(=O)c(O)cn2O)C(=O)NC2CN(S(=O)(=O)O)C2=O)cs1 (stereo not shown) [Compound 9] | 
8 |  | >32 |  | 8 | 4 |  | >32 | >32 | 0.13 |  | 0.5 | 4 | 4 | 4 | 8 | 0.25 | 0.25 | 1 | C[C@H]1[C@H](NC(=O)/C(=N\OCc2cc(=O)c(O)cn2O)c2csc(N)n2)C(=O)N1OCC(=O)O [Compound 22, 2-((3S,4S)-3-{(2Z)-2-(2-amino(1,3-thiazol-4-yl))-3-[(1,5-dihydroxy-4-oxo(2-hydropyridyl))methoxy]-3-azaprop-2-enoylamino}-4-methyl-2-oxoazetidinyloxy)acetic acid] | 
9 |  | 16 |  | 8 | 8 |  | >32 | >32 | 0.25 |  | 1 | 8 | 8 | 8 | 8 | 1 | 0.25 |  | C[C@H](ON1C(=O)[C@@H](NC(=O)/C(=N\OCc2cc(=O)c(O)cn2O)c2csc(N)n2)[C@@H]1C)C(=O)O [Compound 23, (2S)-2-((3S,4S)-3-{(2Z)-2-(2-amino(1,3-thiazol-4-yl))-3-[(1,5-dihydroxy-4-oxo(2-hydropyridyl))methoxy]-3-azaprop-2-enoylamino}-4-methyl-2-oxoazetidinyloxy)propanoic acid] | MIC of antibiotic (Acinetobacter sp. J2; [8]): 8 µg/mL; MIC of antibiotic (Acinetobacter sp. J2; + 324 + sulbactam, 4 mg/L each): 2 µg/mL; MIC of antibiotic [1, 8]: 8 µg/mL; MIC of antibiotic ([1]; + 324 + sulbactam, 4 mg/L each): 8 µg/mL; MIC of antibiotic [2, 8]: 16 µg/mL; MIC of antibiotic ([2]; + 324 + sulbactam, 4 mg/L each): 16 µg/mL; MIC of antibiotic (Enterobacter cloacae P99; [8]): 4 µg/mL; MIC of antibiotic (Enterobacter cloacae P99; + 324 + sulbactam, 4 mg/L each): 8 µg/mL; MIC of antibiotic [3, 8]: 1 µg/mL; MIC of antibiotic ([3]; + 324 + sulbactam, 4 mg/L each): 2 µg/mL; MIC of antibiotic (Serratia marcescens S6; [8]): 0.25 µg/mL; MIC of antibiotic (Serratia marcescens S6; + 324 + sulbactam, 4 mg/L each): 0.5 µg/mL
10 |  | >32 |  | >32 | 16 |  | >32 | >32 | 1 |  | 4 | 16 | 4 | 4 | 8 | 0.5 | 1 | 1 | NC(=O)OCC1C(NC(=O)C(=NOCc2cc(=O)c(O)cn2O)c2csc(N)n2)C(=O)N1OS(=O)(=O)O (stereo not shown) [Compound 25] | MIC of antibiotic (Acinetobacter sp. J2; [8]): >32 µg/mL; MIC of antibiotic [1, 8]: 8 µg/mL; MIC of antibiotic [2, 8]: 8 µg/mL; MIC of antibiotic (Enterobacter cloacae P99; [8]): 4 µg/mL; MIC of antibiotic [3, 8]: 0.5 µg/mL; MIC of antibiotic (Serratia marcescens S6; [8]): 1 µg/mL; MIC of antibiotic [4, 8]: 1 µg/mL
